From US20090023741A1, “ARYL/HETARYLAMIDES AS MODULATORS OF THE EP2 RECEPTOR” (priority 2007, published 2009)
pIC50: −log10 of the molar value.

Assays:
[1] = tested on: cumulus-oocyte complexes (cumulus expansion); test: Cumulus expansion assay in vitro; type: cell-based, mice; conditions: in competition with PGE2
Description: Folliculogenesis is induced in immature female mice (strain: CD1 (ICR) from Charles River) at an age of 14-18 days by a single dose (intraperitoneal) of 10 I.U. of PMSG (Pregnant Mare Serum Gonadotropine; Sigma G-4877, Lot 68H0909). 47-50 hours after the injection, the ovaries are removed and the cumulus-oocyte complexes are removed. The cumulus complex is not yet expanded at this stage.
The cumulus-oocyte complexes are then incubated with prostaglandin E2 (PGE2) (0.3 μM), vehicle control (ethanol) or test substances for 20-24 hours. Medium: alpha-MEM medium with 0.1 mM IBMX, pyruvates (0.23 mM) glutamines (2 mM), pen/strep 100 IU/ml pen. and 100 μg/ml strep.) and HSA (8 mg/ml)). Cumulus expansion is then established through the division into four stages (according to Vanderhyden et al. Dev Biol. 1990 August; 140(2):307-317).

[2] = biological target: T1, EP2 subtype of the human PGE2 receptor (Homo sapiens, UniProt P43116); test: cAMP antagonism assay (HTRF, PGE2-stimulated cells); type: cell-based; conditions: in presence of PGE2
T1 construct: host or cells: cells in a cell culture plate
Description: (§1) The binding of PGE2 to the EP2 subtype of the human PGE2 receptor induces activation of membrane-associated adenylate cyclases and leads to the formation of cAMP. In the presence of the phosphodiesterase inhibitor IBMX, cAMP which has accumulated due to this stimulation and been released by cell lysis is employed in a competitive detection method. In this assay, the cAMP in the lysate competes with cAMP-XL665 for binding of an Eu cryptate-labelled anti-cAMP antibody.
(§2) The two signals are measured in a suitable measuring instrument with a time lag, i.e. after the background fluorescence has declined.
(§3) The substance solutions (0.75 μl) introduced into an assay plate and 30% DMSO are dissolved in 16 μl of a KRSB+IBMX stimulation solution (1× Krebs-Ringer Bicarbonate Buffer; Sigma-Aldrich # K-4002; including 750 μM 3-isobutyl-1-methylxanthine Sigma-Aldrich # I-7018), and then 15 μl thereof are transferred into a media-free cell culture plate which has been washed with KRSB shortly beforehand.
After preincubation at room temperature (RT) for 30 minutes, 5 μl of a 4×PGE2 solution (11 nM) are added, and incubation is carried out in the presence of the agonist at RT for a further 60 min (volume: ˜20 μl) before the reaction is then stopped by adding 5 μl of lysis buffer and incubated at RT for a further 20 min (volume: 25 μl). The cell lysate is then transferred into a measuring plate and measured in accordance with the manufacturer's information (cyclic AMP kit Cisbio International # 62AMPPEC).

[3] = biological target: T1, EP2 subtype of the human PGE2 receptor; test: cAMP agonism assay (cellular agonism test); type: cell-based; conditions: without PGE2
Description: as §1, §2, §3
After incubation at room temperature (RT; volume: ˜15 μl) for 60 minutes, the reaction is then stopped by adding 5 μl of lysis buffer and incubated at RT for a further 20 min (volume: ˜20 μl). The cell lysate is then transferred into a measuring plate and measured in accordance with the manufacturer's information (cyclic AMP kit Cisbio International # 62AMPPEC).

T1 sequence (P43116 whole entry): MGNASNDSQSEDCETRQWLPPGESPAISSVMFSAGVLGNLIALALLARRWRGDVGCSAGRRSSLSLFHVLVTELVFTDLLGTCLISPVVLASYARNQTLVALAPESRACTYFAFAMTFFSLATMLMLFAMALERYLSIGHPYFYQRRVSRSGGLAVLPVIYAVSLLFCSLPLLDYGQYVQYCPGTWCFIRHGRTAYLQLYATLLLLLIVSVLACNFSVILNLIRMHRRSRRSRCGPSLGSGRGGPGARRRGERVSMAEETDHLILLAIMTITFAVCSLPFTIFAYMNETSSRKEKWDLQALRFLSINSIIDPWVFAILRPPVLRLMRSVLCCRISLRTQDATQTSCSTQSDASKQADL

pIC50 [2]	effect in the cellular agonism test [3]	SMILES	inhibition of cumulus expansion ([1]; concentration 100-200 μM)	inhibition at 10 µM ([1]; Mus musculus, concentration 10 μM)
		CC(C)Oc1ccc2c(=O)c3cc(C(=O)O)ccc3oc2c1 [AH 6809, reference compound]	~30%	
5.17		COc1cc(C(=O)NCCc2c(C)[nH]c3c(F)ccc(C)c23)cc(OC)c1OC [Example 2, N-[2-(7-Fluoro-2,4-dimethyl-1H-indol-3-yl)ethyl]-3,4,5-trimethoxybenzamide]		
5.82		Cc1[nH]c2c(F)ccc(C)c2c1CCNC(=O)c1ccc(C(F)(F)F)cc1 [Example 6, N-[2-(7-Fluoro-2,4-dimethyl-1H-indol-3-yl)ethyl]-4-trifluoromethylbenzamide]		
5.92	no inhibition	Cc1[nH]c2c(F)ccc(C)c2c1CCNC(=O)c1ccc(-c2ccc(F)cc2)cc1 [Example 29, 4′-Fluorobiphenyl-4-carboxylic acid [2-(7-fluoro-2,4-dimethyl-1H-indol-3-yl)ethyl]amide]		~20%
